# Source: PubChem BioAssay (NCI)
#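 GI50: concentration for 50% inhibition of growth. At the TGI there is no net growth.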
# How the values were obtained:
# Test in all cases: NCI-60 cell line screen, 384-well format
# 786-0 renal = tested on: 786-0 renal
# A498 renal = tested on: A498 renal
# A549 NSCLC = tested on: A549 NSCLC
# ACHN renal = tested on: ACHN renal
# BT-549 breast = tested on: BT-549 breast
# CAKI-1 renal = tested on: CAKI-1 renal
# CCRF-CEM leukemia = tested on: CCRF-CEM leukemia
# DU-145 prostate = tested on: DU-145 prostate
# EKVX NSCLC = tested on: EKVX NSCLC
# HCT-116 colon = tested on: HCT-116 colon
# HCT-15 colon = tested on: HCT-15 colon
# HL-60(TB) leukemia = tested on: HL-60(TB) leukemia
# HOP-62 NSCLC = tested on: HOP-62 NSCLC
# HOP-92 NSCLC = tested on: HOP-92 NSCLC
# HS 578T breast = tested on: HS 578T breast
# HT29 colon = tested on: HT29 colon
# IGROV1 ovarian = tested on: IGROV1 ovarian
# K-562 leukemia = tested on: K-562 leukemia
# KM12 colon = tested on: KM12 colon
# LOX IMVI melanoma = tested on: LOX IMVI melanoma
# M14 melanoma = tested on: M14 melanoma
# MALME-3M melanoma = tested on: MALME-3M melanoma
# MCF7 breast = tested on: MCF7 breast
# MDA-MB-231 breast = tested on: MDA-MB-231 breast
# MDA-MB-435 melanoma = tested on: MDA-MB-435 melanoma
# MDA-MB-468 breast = tested on: MDA-MB-468 breast
# MOLT-4 leukemia = tested on: MOLT-4 leukemia
# NCI-H226 lung = tested on: NCI-H226 lung
# NCI-H23 lung = tested on: NCI-H23 lung
# NCI-H322M lung = tested on: NCI-H322M lung
# NCI-H522 lung = tested on: NCI-H522 lung
# NCI/ADR-RES ovarian = tested on: NCI/ADR-RES ovarian
# OVCAR-3 ovarian = tested on: OVCAR-3 ovarian
# OVCAR-4 ovarian = tested on: OVCAR-4 ovarian
# OVCAR-5 ovarian = tested on: OVCAR-5 ovarian
# OVCAR-8 ovarian = tested on: OVCAR-8 ovarian
# PC-3 prostate = tested on: PC-3 prostate
# RPMI-8226 leukemia = tested on: RPMI-8226 leukemia
# RXF 393 renal = tested on: RXF 393 renal
# SF-268 CNS = tested on: SF-268 CNS
# SF-295 CNS = tested on: SF-295 CNS
# SF-539 CNS = tested on: SF-539 CNS
# SK-MEL-2 melanoma = tested on: SK-MEL-2 melanoma
# SK-MEL-28 melanoma = tested on: SK-MEL-28 melanoma
# SK-OV-3 ovarian = tested on: SK-OV-3 ovarian
# SN12C renal = tested on: SN12C renal
# SNB-19 CNS = tested on: SNB-19 CNS
# SNB-75 CNS = tested on: SNB-75 CNS
# SW-620 colon = tested on: SW-620 colon
# T-47D breast = tested on: T-47D breast
# TK-10 renal = tested on: TK-10 renal
# U251 glioblastoma = tested on: U251 glioblastoma
# UACC-257 melanoma = tested on: UACC-257 melanoma
# UACC-62 melanoma = tested on: UACC-62 melanoma
# UO-31 renal = tested on: UO-31 renal
smiles,measurement,setting,value
O=C1c2c(O)ccc(O)c2C(=O)c2c(NCCNCCO)ccc(NCCNCCO)c21,GI50,786-0 renal,10.3 nM
same,TGI,786-0 renal,246 nM
same,GI50,A498 renal,11.4 nM
same,TGI,A498 renal,217 nM
same,GI50,A549 NSCLC,< 10 nM
same,TGI,A549 NSCLC,181 nM
same,GI50,ACHN renal,33.3 nM
same,TGI,ACHN renal,251 nM
same,GI50,BT-549 breast,15.5 nM
same,TGI,BT-549 breast,195 nM
same,GI50,CAKI-1 renal,13.3 nM
same,TGI,CAKI-1 renal,642 nM
same,GI50,CCRF-CEM leukemia,< 10 nM
same,TGI,CCRF-CEM leukemia,< 10 nM
same,GI50,DU-145 prostate,19.6 nM
same,TGI,DU-145 prostate,650 nM
same,GI50,EKVX NSCLC,589 nM
same,TGI,EKVX NSCLC,3.54 µM
same,GI50,HCT-116 colon,< 10 nM
same,TGI,HCT-116 colon,242 nM
same,GI50,HCT-15 colon,< 10 nM
same,TGI,HCT-15 colon,173 nM
same,GI50,HL-60(TB) leukemia,< 10 nM
same,TGI,HL-60(TB) leukemia,< 10 nM
same,GI50,HOP-62 NSCLC,< 10 nM
same,TGI,HOP-62 NSCLC,16 nM
same,GI50,HOP-92 NSCLC,24.8 nM
same,TGI,HOP-92 NSCLC,1190 nM
same,GI50,HS 578T breast,< 10 nM
same,TGI,HS 578T breast,181 nM
same,GI50,HT29 colon,34.4 nM
same,TGI,HT29 colon,187 nM
same,GI50,IGROV1 ovarian,185 nM
same,TGI,IGROV1 ovarian,5.37 µM
same,GI50,K-562 leukemia,48.1 nM
same,TGI,K-562 leukemia,240 nM
same,GI50,KM12 colon,44.7 nM
same,TGI,KM12 colon,284 nM
same,GI50,LOX IMVI melanoma,13.8 nM
same,TGI,LOX IMVI melanoma,155 nM
same,GI50,M14 melanoma,17.7 nM
same,TGI,M14 melanoma,334 nM
same,GI50,MALME-3M melanoma,61.1 nM
same,TGI,MALME-3M melanoma,388 nM
same,GI50,MCF7 breast,< 10 nM
same,TGI,MCF7 breast,1180 nM
same,GI50,MDA-MB-231 breast,18.7 nM
same,TGI,MDA-MB-231 breast,97.9 nM
same,GI50,MDA-MB-435 melanoma,125 nM
same,TGI,MDA-MB-435 melanoma,1100 nM
same,GI50,MDA-MB-468 breast,16.8 nM
same,TGI,MDA-MB-468 breast,59.8 nM
same,GI50,MOLT-4 leukemia,< 10 nM
same,TGI,MOLT-4 leukemia,< 10 nM
same,GI50,NCI-H226 lung,13.4 nM
same,TGI,NCI-H226 lung,163 nM
same,GI50,NCI-H23 lung,12.9 nM
same,TGI,NCI-H23 lung,102 nM
same,GI50,NCI-H322M lung,313 nM
same,TGI,NCI-H322M lung,1760 nM
same,GI50,NCI-H522 lung,14.6 nM
same,TGI,NCI-H522 lung,58 nM
same,GI50,NCI/ADR-RES ovarian,4.58 µM
same,TGI,NCI/ADR-RES ovarian,> 100 µM
same,GI50,OVCAR-3 ovarian,186 nM
same,TGI,OVCAR-3 ovarian,1160 nM
same,GI50,OVCAR-4 ovarian,171 nM
same,TGI,OVCAR-4 ovarian,660 nM
same,GI50,OVCAR-5 ovarian,24.3 nM
same,TGI,OVCAR-5 ovarian,284 nM
same,GI50,OVCAR-8 ovarian,< 10 nM
same,TGI,OVCAR-8 ovarian,152 nM
same,GI50,PC-3 prostate,135 nM
same,TGI,PC-3 prostate,545 nM
same,GI50,RPMI-8226 leukemia,< 10 nM
same,TGI,RPMI-8226 leukemia,37.1 nM
same,GI50,RXF 393 renal,61 nM
same,TGI,RXF 393 renal,210 nM
same,GI50,SF-268 CNS,< 10 nM
same,TGI,SF-268 CNS,154 nM
same,GI50,SF-295 CNS,10.6 nM
same,TGI,SF-295 CNS,44.7 nM
same,GI50,SF-539 CNS,< 10 nM
same,TGI,SF-539 CNS,124 nM
same,GI50,SK-MEL-2 melanoma,83.9 nM
same,TGI,SK-MEL-2 melanoma,189 nM
same,GI50,SK-MEL-28 melanoma,116 nM
same,TGI,SK-MEL-28 melanoma,1370 nM
same,GI50,SK-OV-3 ovarian,17.7 nM
same,TGI,SK-OV-3 ovarian,661 nM
same,GI50,SN12C renal,< 10 nM
same,TGI,SN12C renal,55.5 nM
same,GI50,SNB-19 CNS,10.5 nM
same,TGI,SNB-19 CNS,1120 nM
same,GI50,SNB-75 CNS,22.9 nM
same,TGI,SNB-75 CNS,130 nM
same,GI50,SW-620 colon,< 10 nM
same,TGI,SW-620 colon,507 nM
same,GI50,T-47D breast,29.8 nM
same,TGI,T-47D breast,1420 nM
same,GI50,TK-10 renal,121 nM
same,TGI,TK-10 renal,358 nM
same,GI50,U251 glioblastoma,< 10 nM
same,TGI,U251 glioblastoma,114 nM
same,GI50,UACC-257 melanoma,1100 nM
same,TGI,UACC-257 melanoma,2370 nM
same,GI50,UACC-62 melanoma,< 10 nM
same,TGI,UACC-62 melanoma,148 nM
same,GI50,UO-31 renal,195 nM
same,TGI,UO-31 renal,1650 nM
